The values that follow are results of earlier work, collected in patent US20200068939A1, “Nutritional compositions to increase and sustain blood ketone levels” (JHO Intellectual Property Holdings LLC, priority 2018, published 2020).

Molecules are shown by their SMILES.

The conditions of data set [1]: acute ingestion, 15 min to 6 hr.
Test in data set [2]: not given
This is another data set of the same source.

Regarding `Cn1c(=O)c2c(ncn2C)n(C)c1=O` [Caffeine], the “stimulation of ketone production” value (2.5 mg/kg given at breakfast) is reported as “+88%”. Where the note is “2.5, 5.0 mg/kg given at breakfast”, the “plasma free fatty acids” value is given as “raised plasma free fatty acids”.
With `C[C@@H](O)CCOC(=O)C[C@@H](C)O` [KME, (R)-3-hydroxybutyl (R)-3-hydroxybutyrate], the “bHB in short-term nutritional ketosis” value in data set [1] is listed as above 1 mM. For the same molecule, the “blood βHB concentration at the start of the OGTT” value in data set [2] (482 mg/kg 30 min before glucose bolus) is around 3 mM. For the same molecule, in data set [2] (482 mg/kg 30 min before glucose bolus, end of 2 h test), the “blood βHB concentration at the end of the OGTT” value is given as around 1.5 mM. Moreover, the “reduction in 2 h AUC for serum FFAs” value in data set [2] (482 mg/kg, 2 h) is 44%. In addition, the “reduction of plasma glucose AUC” value in data set [2] (482 mg/kg, over the 2 h period) is recorded as 16%.
